Test results taken from the supplement of paper PMC8882468.

Assays:
Test in all cases: CTG-3D luminescence at 96 h relative to day-0 seeding control (ratio to day 0); higher = more growth / less cytotoxicity; PDxO 3D drug screen, 96 h, CTG-3D normalised to day-0 seeding control.
HCI-023 = tested on: HCI-023 (organoid from a triple-negative breast cancer xenograft)
MDA-MB-231 = tested on: MDA-MB-231
HCI-017.E2 = tested on: HCI-017.E2 (organoid from an ER-positive breast cancer xenograft)
HCI-002 = tested on: HCI-002 (organoid from a triple-negative breast cancer xenograft)
HCI-025 = tested on: HCI-025 (organoid from a breast cancer xenograft)
HCI-015 = tested on: HCI-015 (organoid from a triple-negative breast cancer xenograft)

C/C=C1\NC(=O)[C@H]2CSSCC/C=C/[C@H](CC(=O)N[C@H](C(C)C)C(=O)N2)OC(=O)[C@H](C(C)C)NC1=O [romidepsin]
CTG-3D luminescence at 96 h
Conditions	12.5 pM	0.00025 µM	0.005 µM	0.1 µM	1 µM	10 µM	100 µM	625 fM
HCI-002, days in culture: 62	3.13	2.76	0.0634	-0.0198	-0.0112	-0.0609	-0.0931	3.1
HCI-002, days in culture: 82	3.16	3.38	0.0989	0.0435	0.0464	-0.0117	-0.0289	2.85
HCI-002, days in culture: 91	2.94	2.73	0.0516	0.028	0.0172	0.000373	-0.0143	2.7
HCI-002, days in culture: 191	3.33	3.23	-0.0284	-0.0636	-0.0937	-0.0909	-0.148	3.22
HCI-002, days in culture: 209	2.88	2.68	0.0167	-0.00615	-0.0397	-0.0225	-0.0845	2.84
HCI-002, days in culture: 227	5.16	4.82	0.108	0.0548	0.0335	0.0109	-0.0188	5.69
HCI-015, days in culture: 172	1.96	1.32	1.05	0.221	0.425	-0.0523	-0.0841	2.7
HCI-015, days in culture: 191	2.51	1.79	0.707	0.312	0.256	0.0321	0.00192	2.21
HCI-015, days in culture: 218	2.09	1.5	0.78	-0.0662	-0.0737	-0.275	-0.342	2.07
HCI-017.E2, days in culture: 85	2.46	2.08	1.87	0.329	0.2	0.0715	-0.00898	2.18
HCI-023, days in culture: 111	1.65	1.37	0.46	0.0304	0.0241	-0.00341	-0.0106	1.9
HCI-023, days in culture: 128	1.66	1.55	0.343	0.104	0.0518	0.00597	-0.00382	1.556
HCI-025, days in culture: 172	1.84	1.14	1.58	-0.245	-0.354	-0.306	-0.318	1.48
HCI-025, days in culture: 209	1.99	2.87	1.48	0.312	0.313	0.034	-0.0293	1.94
HCI-025, days in culture: 218	1.5	2.01	0.886	-0.155	-0.189	-0.329	-0.306	1.84

CTG-3D luminescence at 96 h
Conditions	12.5 pM	0.00025 µM	0.005 µM	0.1 µM	1 µM	10 µM	100 µM	625 fM
HCI-017.E2	1.34	1.36	0.657	0.298	0.151	0.033	-0.0104	1.17
MDA-MB-231	3.87	3.12	0.22	0.0791	0.0421	-0.000441	-0.0309	4.02

CNC(=O)c1cccc(-c2ccc3c(N4CCOC[C@@H]4C)nc(N4CCOC[C@@H]4C)nc3n2)c1 [vistusertib]
CTG-3D luminescence at 96 h
Conditions	12.5 pM	0.00025 µM	0.005 µM	0.1 µM	1 µM	10 µM	100 µM	625 fM
HCI-002, days in culture: 62	2.66	2.61	3.41	2.32	1.07	0.702	0.277	2.99
HCI-002, days in culture: 82	3.06	2.8	2.5	2.33	1.07	0.582	0.259	2.63
HCI-002, days in culture: 91	3.62	3.61	3.38	2.8	1.19	0.884	0.482	3.86
HCI-002, days in culture: 191	2.7	2.8	3.06	2.32	1.41	0.774	0.426	2.78
HCI-002, days in culture: 209	2.32	2.49	2.32	2.03	0.917	0.345	0.219	2.62
HCI-002, days in culture: 227	5.65	5.55	5.27	3.89	1.39	1.12	0.394	5.47
HCI-015, days in culture: 172	2.36	1.61	2.07	0.997	0.995	0.545	0.36	2.7
HCI-015, days in culture: 191	1.84	1.24	1.54	0.827	0.859	0.436	0.329	1.43
HCI-015, days in culture: 218	2.16	1.84	2.09	1.41	0.874	0.543	0.305	2.18
HCI-017.E2, days in culture: 85	3.03	2.04	2.83	1.99	0.732	0.76	0.421	2.95
HCI-023, days in culture: 111	1.41	1.27	1.29	1.09	0.468	0.406	0.242	1.5
HCI-023, days in culture: 128	1.83	1.59	1.44	1.27	0.78	0.864	0.541	1.7
HCI-025, days in culture: 172	2.8	1.41	1.7	0.95	0.649	0.279	0.41	2.26
HCI-025, days in culture: 209	1.74	2.05	2.28	0.89	0.395	0.287	0.239	2.1
HCI-025, days in culture: 218	1.49	1.78	1.94	0.816	0.249	0.373	0.201	1.44

CTG-3D luminescence at 96 h
Conditions	12.5 pM	0.00025 µM	0.005 µM	0.1 µM	1 µM	10 µM	100 µM	625 fM
HCI-017.E2	1.6	2.166	1.94	1.38	0.698	0.585	0.418	2.18
MDA-MB-231	4.58	4.53	4.66	4.35	3.31	2.7	1.9	4.64
